The subject of this assay is LUVs containing 20 mol % TOCL or POPG. The experiment in a line: Zeta potential measurements of LUVs with increasing peptide. As to conditions: LUVs 100 μM total lipid, n = 3. The procedure:
Figure 3. SS-31 binding and surface electrostatics. A, binding isotherms. Peptide was titrated with LUVs of the indicated composition (20% TOCL, [SS-31] = 7.5 μM and 20% POPG, [SS-31] = 3.8 μM) at 30-nmol total lipid increments in the presence of different concentrations of added KCl. Values shown are means ± S.D. (error bars) (n = 3), and lines show data fits based on Equation S3. […] B and C, effect of SS-31 binding on surface charge. Measurements of ζ (B) and ANS fluorescence (C) are shown as a function of [SS-31]/[lipid]^eff for membranes containing 20% TOCL and 20% POPG as indicated. Values shown are means ± S.D. (error bars) (n = 3).
To continue this analysis, we determined the relationship between SS-31 binding and surface electrostatics by two complementary approaches. We first performed zeta potential (ζ) measurements of LUVs containing 20 mol % TOCL or POPG with increasing [SS-31] (Fig. 3B). […] As an independent technique, we measured the effect of SS-31 on surface electrostatics using 1-anilinonaphthalene-8-sulfonic acid (ANS), a fluorescent reporter whose binding to anionic bilayers increases as the magnitude of the ψs is reduced, measured as an increase in probe emission intensity ([42]) (Fig. 3C and Fig. S9D). […]

Where a SMILES comes first, the peptide text is derived from it. [ ]: non-standard residue; d: D form. Dmt = Cc1cc(O)cc(C)c1C[C@H](N)C(=O)O

Regarding `Cc1cc(O)cc(C)c1C[C@H](NC(=O)[C@H](N)CCCNC(=N)N)C(=O)N[C@@H](CCCCN)C(=O)N[C@@H](Cc1ccccc1)C(N)=O` [SS-31, D-Arg-2′6′-dimethyl-Tyr-Lys-Phe-NH2] (H-[dR][Dmt]KF-NH2), the “zeta potential (ζ) at saturation with increasing peptide” value is reported as about −30 mV.

Values taken from publication PMC7247319, “The mitochondria-targeted peptide SS-31 binds lipid bilayers and modulates surface electrostatics as a key component of its mechanism of action” (The Journal of Biological Chemistry, 2020).
